The record followed here is paper PMC3049593 (British Journal of Cancer, 2011).

One data set deals with HepG2 cells. The experiment in a line: in vitro cytotoxicity (LC50). The data set is classed as cell-based. Particulars: read-out: LC50 (concentration lethal to 50% of cells).
In data set [1] the test system is HT-29 tumours and metastases. The data set can be described thus: intrasplenic HT-29 colon xenograft spontaneous metastasis model. The format is in vivo, mice. The procedure: (§1) In the orthotopic Hep3b2.1-7 human liver cancer model, treatment of mice (n=10) began 14 days after inoculation of 2.5 × 10^6 cells. […] To initiate tumour xenografts, MDA-MB-231, PC3, Cal27 and HepG2 cells were injected s.c. into nude mice (n=8) at 4, 5, 2 and 2 × 10^7 cells ml^−1, respectively. […] In the B16F0 lung metastasis model, 2 × 10^5 cells were injected via the tail vein of C57Bl6 mice (n=8). […] Surface lung macrometastases were counted for each group (n=9) upon study termination. In the intrasplenic HT-29 xenograft model, 1 × 10^6 cells in 100 μl were injected into the spleen. […] Solid tumours were measured in two dimensions (length and width) and the tumour volume (cm^3) was calculated using the equation: V=length × width^2 × π/6. The anti-tumour activity was expressed as percent tumour growth inhibition (%TGI). Further details are available in Supplementary Methods. […]
once weekly or Sorafenib (60mg/kg, once daily, p.o.). The treatments were continued for three weeks. The lungs were excised from all mice at the time of culling for metastasis count determination. Surface lung macrometastases were counted for each group upon […]
In the HT-29 model, the lumbar region skin was sterilized with 5% tincture and 75% ethanol, respectively. One-cm-long incision was made to expose the spleen before 1×10^6 cells in 100 µL was injected into the spleen. […]
mg/kg) was administered to mice (n=12) each week (qw) over 8 weeks and surface liver and colon metastatic nodules were counted for each group (n=12) upon study termination. Spleen and liver weights were also measured as indirect assessment of […]
In relevant models, solid tumours were measured in two dimensions (length and width) and the tumour volume (mm3) calculated using the equation V = length × width2 × π/6.The anti-tumour activity was assessed by the comparison of the mean tumour volume of the treated groups to the mean tumour volume of the control group and expressed as the percent Tumour Growth Inhibition (TGI) using the equation: […]

Data set [2] relates to LL/2 tumours and lung metastases. The data set can be described thus: syngeneic Lewis Lung Carcinoma (LL/2) tumour growth and spontaneous metastasis model. The data set is classed as in vivo, mice. On the procedure:
as §1
efficacy/PK study) using either a once or twice weekly dosing schedule (see figure legends for dose schedules in each study) for up to three weeks. […]
In the LL/2 mouse model, treatment of mice commenced on the day of inoculation (Day 0). Mice inoculated subcutaneously were treated with either Vehicle Control […]
once weekly or Sorafenib (60mg/kg, once daily, p.o.). The treatments were continued for three weeks. The lungs were excised from all mice at the time of culling for metastasis […]
count determination. […]
In relevant models, solid tumours were measured in two dimensions (length and width) and the tumour volume (mm3) calculated using the equation V = length × width2 × π/6.The anti-tumour activity was assessed by the comparison of the mean tumour volume of the treated groups to the mean tumour volume of the control group and expressed as the percent Tumour Growth Inhibition (TGI) using the equation:
%TGI = (1-((VendPG545 - VstartPG545) / (VendControl - VstartControl)))*100 VendPG545 = Ending Tumour Volume of PG545-treated animal
VstartPG545 = Starting Tumour Volume of PG545-treated animal
VendControl = Ending Tumour Volume of Control animal
VstartControl = Starting Tumour Volume of Control animal […]
After collection, 0.2 mL of […]
whole blood was added to a glass scintillation vial to which 1 mL Solvable was added.
Samples were incubated for one hour at 55-60°C. 0.1 mL of 0.1 M EDTA-di-sodium salt solution and 0.3 mL to 0.5 mL of 30% hydrogen peroxide in 0.1 mL aliquots were added to the sample. Samples were gently agitated between additions to allow reaction foaming to subside. Samples were incubated for 30 minutes at room temperature. Vials were capped tightly and incubated again at 55 – 60 °C fo r 1 hour. Samples were cooled to room temperature and 15 mL of ULTIMA Gold added.
For tumour samples, 100 mg of tissue was placed in a 20 mL glass scintillation vial and 2 mL of Solvable added. The samples were incubated at 50 - 60 °C for 1 hour with occasional swirling. Samples were cooled to room temperature and for tumours, 0.3 mL of 30% hydrogen peroxide in three aliquots of 0.1 mL were added. The samples were again incubated at 50 - 60 °C for 1 hour with occasional swirling. Tumours samples were […]

[3] abbreviates: qw, 20 mg kg^−1, after 8th week of administration.

With `CC(C)CCC[C@@H](C)[C@H]1CCC2C3CCC4C[C@@H](O[C@@H]5O[C@H](COS(=O)(=O)[O-])[C@@H](O[C@H]6O[C@H](COS(=O)(=O)[O-])[C@@H](O[C@H]7O[C@H](COS(=O)(=O)[O-])[C@@H](O[C@H]8O[C@H](COS(=O)(=O)[O-])[C@@H](OS(=O)(=O)[O-])[C@H](OS(=O)(=O)[O-])[C@H]8OS(=O)(=O)[O-])[C@H](OS(=O)(=O)[O-])[C@H]7OS(=O)(=O)[O-])[C@H](OS(=O)(=O)[O-])[C@H]6OS(=O)(=O)[O-])[C@H](OS(=O)(=O)[O-])[C@H]5OS(=O)(=O)[O-])CC[C@]4(C)C3CC[C@@]21C.[Na+].[Na+].[Na+].[Na+].[Na+].[Na+].[Na+].[Na+].[Na+].[Na+].[Na+].[Na+].[Na+]` (some centres unmarked) [PG545], the CC50 in the data set with HepG2 cells is over 100 µM. The primary tumour growth entry in data set [1] (20 mg kg^−1 qw over 8 weeks) was “significantly reduced primary tumour growth”. Besides, in data set [1] (setting [3]), the “TGI (colon metastases)” value turned out to be 93% and the “TGI (liver metastases)” value is given as 100%. Further, in data set [2] (20 mg kg^−1 once-weekly), the “TGI (primary tumour)” value is 46% and the “TGI / inhibition (lung metastases)” value turned out to be 96%. Also, in data set [2] (20 mg kg^−1 single dose), the “TGI (lung metastases)” value was 67% and the “TGI (primary tumour)” value worked out at 15%. Moreover, in data set [2] (40 mg kg^−1 once-weekly), the “TGI (lung metastases)” value stood at 67% and the “TGI (primary tumour)” value is 57%. The “TGI (primary tumour)” value in data set [2] (40 mg kg^−1 single dose) is recorded as 33%.
